Legend:
NMRI-Mäusen = experiment: CNS tolerability in the healthy animal (mouse), behavioural observation; assay type: in vivo, Maus; settings: for Symptome: phenomena observed 3 hours after application; for Dosis, ab der eine ZNS erregende Aktivität, die als unverträglich gilt, auftritt: mouse, i.p., dose from which the behaviour-altering CNS excitation is seen
Method: Adulten männlichen NMRI-Mäusen werden die zu untersuchenden Substanzen in Dosen von 0,1-100 mg/kg i.p. in einem Volumen von 10 ml/kg verabreicht. Pro Versuchsdosis werden drei Tiere eingesetzt, wobei eine Gruppe als Placebo nur mit dem Lösungsmittel behandelt (Kontrolle) mitgeführt wird.
Die Placebogruppe dient dabei zur zeitgleichen Verhaltensfeststellung, parallel zur Versuchsgruppe. Sofort nach der Applikation werden die Tiere in Dreiergruppen in Beobachtungskäfige gesetzt und drei Stunden lang am ersten Tag beobachtet. Anschließend werden die Tiere gefüttert, getränkt und weitere sechs Tage, jeweils nach 24 Stunden, für eine halbe Stunde beobachtet. Dabei ergaben sich folgende Befunde: Tabelle 2

Mongolischen Gerbil = experiment: Neuroprotection after forebrain ischaemia in the gerbil (5-minute bilateral carotid artery occlusion); assay type: in vivo; settings: treated vs. control group; for Verhaltensscore (% Änderung): 5-step neurological score over 45 min after ischaemia; for Zellnekrosen (% Änderung): 5-step histopathological score, hippocampal CA₁ region, 7 days later
Excerpt: Anhand der nachfolgend beschriebenen Versuchsdurchführungen (K. Rudolphi et. al, J. Cereb. Blood Flow Metab., 7:74. 1987) ergibt sich, daß die unten aufgeführten Verbindungen in der Lage sind, zerebrale Nervenzellen gegen eine schwere ischämische Schädigung zu schützen.
Bei 20 männlichen Mongolischen Gerbils werden unter Halothan-Narkose durch beidseitigen Verschluß der A. Carotis mittels Aneurysmaclips eine 5-minütige Ischämie des Vorderhirns mit anschließender Rezirkulation erzeugt. Die Tiere werden 45 Minuten lang nach der Ischämie beobachtet und das Ausmaß der neurologischen Symptome mittels eines 5-stufigen Verhaltensscores bestimmt. 7 Tage später werden die Tiere unter Halothan-Narkose dekapitiert, die Gehirne in Carnoy-Lösung immersionsfixiert und das Ausmaß des Neuronenschadens in der CA₁-Region des Hippocampus mit Hilfe eines 5-stufigen histopathologischen Scores "blind" bestimmt. Die Prüfsubstanzen werden je einer Gruppe von 10 Gerbils intraperitoneal oder per os 15 Minuten vor der Ischämie verabreicht. Pro Testsubstanz wird eine ischämische Kontrollgruppe von ebenfalls 10 Tieren mit dem jeweiligen Lösungsmittel behandelt. Die Ergebnisse sind in Tabelle 6 als % Änderung des mittleren neurologsichen Verhaltensscores bzw. histopathologischen Scores (Summe der individuellen Scores/Anzahl der Tiere) der behandelten vs. Kontrollgruppe zusammengefaßt. Tabelle 1
Je höher der Verhaltensscore (-% Änderungen), desto besser ist die Erholung der Tiere nach Ischämie.

[1] = 30 mg/kg ip. 15 min before 5-min forebrain ischaemia
[2] = 30 mg/kg ip. 15 min before ischaemia

SMILES | Symptome (NMRI-Mäusen; dose 0,1-0,3 mg/kg i.p.) | Symptome (NMRI-Mäusen; dose 1,0-3,0 mg/kg i.p.) | Symptome (NMRI-Mäusen; dose 10-100 mg/kg i.p.) | Dosis, ab der eine ZNS erregende Aktivität, die als unverträglich gilt, auftritt (NMRI-Mäusen; listed as (+)-Form) [mg/kg i. p.] | Verhaltensscore (% Änderung) (Mongolischen Gerbil; [1]) | Zellnekrosen (% Änderung) (Mongolischen Gerbil; [2]) | Symptome (NMRI-Mäusen; dose 0,01-0,3 mg/kg i.p.) | Dosis, ab der eine ZNS erregende Aktivität, die als unverträglich gilt, auftritt (NMRI-Mäusen; listed as (-)-Form) [mg/kg i. p.] | Verhaltensscore (% Änderung) (Mongolischen Gerbil; 60 mg/kg ip. 15 min before 5-min forebrain ischaemia) | Zellnekrosen (% Änderung) (Mongolischen Gerbil; 60 mg/kg ip. 15 min before ischaemia) | Symptome (NMRI-Mäusen; dose 0,1-3 mg/kg i.p.) | Dosis, ab der eine ZNS erregende Aktivität, die als unverträglich gilt, auftritt (NMRI-Mäusen) [mg/kg i. p.]
CNC(Cc1ccccc1N)c1sccc1C (single isomer, unassigned; (+)) [(+)II, 2-Amino-N-methyl-α-(3-methyl-2-thienyl)benzylethanamin] | o. B. | kurzandauernde Erregung | vermehrter Putztrieb, Unruhe, Erregung, Taumeln | ≥ 10 | -51 | -90 |  |  |  |  |  | 
CNC(Cc1ccccc1N)c1sccc1C (single isomer, unassigned; (-)) [(-)II, 2-Amino-N-methyl-α-(3-methyl-2-thienyl)benzylethanamin] |  | o. B. | Unruhe, vermehrter Putztrieb |  | -32 |  | o. B. | ≥ 100 | -75 | -23 |  | 
CNC(Cc1ccccc1N)c1sccc1C (racemic) [Razemisch II, 2-Amino-N-methyl-α-(3-methyl-2-thienyl)benzylethanamin] |  | Unruhe, Erregung, vermehrter Putztrieb | Taumeln, vermehrter Putztrieb, Unruhe, Erregung |  | -15 | -75 |  |  |  |  | vermehrter Putztrieb | ≥ 10

From patent EP0516978A1, “Enantiomers of substituted (aminophenyl)-heteroarylethylamines, a method for their preparation, and pharmaceutical compositions containing these compounds” (HOECHST AKTIENGESELLSCHAFT, priority 1991, dated 1992)
